Data published in patent US20060035925A1, “SUBSTITUTED 4H-CHROMENES AND ANALOGS AS ACTIVATORS OF CASPASES AND INDUCERS OF APOPTOSIS AND THE USE THEREOF” (Cytovia, Inc., priority 1999, published 2006).
Where two headings read alike, the source gives them in different places.

What was measured:
[1] = tested on: Human breast cancer cell line T-47D; assay: Caspase cascade activation assay (N-(Ac-DEVD)-N'-ethoxycarbonyl-R110 fluorogenic substrate) in T-47D cells; type: cell-based; conditions: for Caspase activity (Ratio) T-47D: 24 h incubation with compound, ratio of net RFU (T=3 h) of test compound to control
Procedure: (§1) Human breast cancer cell lines T-47D and ZR-75-1 were grown according to media component mixtures designated by American Type Culture Collection +10% FCS (Invitrogen Corporation), in a 5% CO2-95% humidity incubator at 37° C. T-47D and ZR-75-1 cells were maintained at a cell density between 30 and 80% confluency at a cell density of 0.1 to 0.6×10^6 cells/ml. Cells were harvested at 600×g and resuspended at 0.65×10^6 cells/mL into appropriate media +10% FCS. An aliquot of 45 μl of cells was added to a well of a 96-well microtiter plate containing 5 μl of a 10% DMSO in RPMI-1640 media solution containing 0.16 to 10 μM of 2-amino-3-cyano-4-(3-bromo-4,5-dimethoxyphenyl)-4H-indolo[7,6-b]pyran (Example 42) or other test compound (0.016 to 1 μM final). An aliquot of 45 μl of cells was added to a well of a 96-well microtiter plate containing 5 μl of a 10% DMSO in RPMI-1640 media solution without test compound as the control sample. The samples were mixed by agitation and then incubated at 37° C. for 24 h in a 5% CO2-95% humidity incubator. After incubation, the samples were removed from the incubator and 50 μl of a solution containing 20 μM of N-(Ac-DEVD)-N′-ethoxycarbonyl-R110 (SEQ ID NO:1) fluorogenic substrate (Cytovia, Inc.; WO99/18856), 20% sucrose (Sigma), 20 mM DTT (Sigma), 200 mM NaCl (Sigma), 40 mM Na PIPES buffer pH 7.2 (Sigma), and 500 μg/ml lysolecithin (Calbiochem) was added. The samples were mixed by agitation and incubated at room temperature. Using a fluorescent plate reader (Model 1420 Wallac Instruments), an initial reading (T=0) was made approximately 1-2 min after addition of the substrate solution, employing excitation at 485 nm and emission at 530 nm, to determine the background fluorescence of the control sample. After the 3 h incubation, the samples were read for fluorescence as above (T=3 h).
(§2) The Relative Fluorescence Unit values (RFU) were used to calculate the sample readings as follows: RFU(T=3h)−Control RFU(T=0)=Net RFU(T=3h)
(§3) The activity of caspase cascade activation was determined by the ratio of the net RFU value for 2-amino-3-cyano-4-(3-bromo-4,5-dimethoxyphenyl)-4H-indolo[7,6-b]pyran or other test compound to that of control samples. The EC50 (nM) was determined by a sigmoidal dose-response calculation (Prism 2.0, GraphPad Software Inc.).

[2] = tested on: Human breast cancer cell line ZR-75-1; assay: Caspase cascade activation assay (N-(Ac-DEVD)-N'-ethoxycarbonyl-R110 fluorogenic substrate) in ZR-75-1 cells; type: cell-based; conditions: for Caspase activity (Ratio) ZR-75-1: 24 h incubation with compound, ratio of net RFU (T=3 h) of test compound to control
Procedure: as §1, §2, §3

[3] = Homo sapiens, T47D, 24 h, 24 h incubation, sigmoidal dose-response, read-out: Caspase potency EC50 (nM) T-47D
[4] = Homo sapiens, ZR-75-1, 24 h, ZR-75-1 cells, 24 h incubation, sigmoidal dose-response, read-out: Caspase potency EC50 (nM) ZR-75-1
[5] = 24 h incubation, sigmoidal dose-response, read-out: Caspase potency EC50 (nM) T-47D
[6] = ZR-75-1 cells, 24 h incubation, sigmoidal dose-response, read-out: Caspase potency EC50 (nM) ZR-75-1
[7] = Homo sapiens, T47D, additional compounds, Table II, read-out: Caspase potency EC50 (nM) T-47D, Table II
[8] = Homo sapiens, ZR-75-1, ZR-75-1 cells, additional compounds, Table II, read-out: Caspase potency EC50 (nM) ZR-75-1, Table II
[9] = ZR-75-1 cells, additional compounds, Table II

| Compound | Caspase activity (Ratio) T-47D [1] | EC50 [1, 3] [nM] | EC50 [2, 4] [nM] | Caspase activity (Ratio) ZR-75-1 ([2]; ZR-75-1 cells) | EC50 [1, 5] [nM] | EC50 [2, 6] [nM] | EC50 [1, 7] [nM] | Caspase activity (Ratio) T-47D, Table II ([1]; additional compounds, Table II) | EC50 [2, 8] [nM] | Caspase activity (Ratio) ZR-75-1, Table II [2, 9] |
| --- | --- | --- | --- | --- | --- | --- | --- | --- | --- | --- |
| CCNc1ccc2c(c1)OC(N)=C(C#N)C2c1cccc(OC)c1 (stereo not shown) [Example 15, 2-Amino-3-cyano-7-ethylamino-4-(3-methoxyphenyl)-4H-chromene] | 5.9 | 7 | 4 | 6.3 | – | – | – | – | – | – |
| COc1cc(C2C(C#N)=C(N)Oc3cc(Cl)ccc32)cc(Br)c1OC (stereo not shown) [Example 63, 2-Amino-4-(3-bromo-4,5-dimethoxy-phenyl)-7-chloro-3-cyano-4H-chromene] | 9.1 | 147 | 114 | 10.1 | – | – | – | – | – | – |
| N#CC1=C(N)Nc2ccccc2C1c1ccccc1 (stereo not shown) [Example 71, 2-Amino-3-cyano-4-phenyl-1,4-dihydroquinoline] | 3.1 | 7850 | 3720 | 4.1 | – | – | – | – | – | – |
| N#CC1=C(N)Oc2cc(N)ccc2C1c1cc(F)cc(F)c1 (stereo not shown) [Example 2O, 2-Amino-3-cyano-7-amino-4-(3,5-difluorophenyl)-4H-chromene] | 6.4 | 323 | 193 | 7.1 | – | – | – | – | – | – |
| N#CC1=C(N)Oc2cc(N)ccc2C1c1cccc([N+](=O)[O-])c1 (stereo not shown) [Example 25, 2,7-Diamino-3-cyano-4-(3-nitrophenyl)-4H-chromene] | 6.1 | 463 | 325 | 9.7 | – | – | – | – | – | – |
| N#CC1=C(N)OC2C3=CC=NC3=CC=C2C1c1cncc(C#N)c1 (stereo not shown) [Example 57, 2-Amino-3-cyano-4-(5-cyano-pyridin-3-yl)-4H-indolo[4,5-b]pyran] | 7.2 | 58 | 27.9 | 7.3 | – | – | – | – | – | – |
| COc1cncc(C2C(C#N)=C(N)Oc3cc(N)ccc32)c1 (stereo not shown) [Example 39, 2,7-Diamino-3-cyano-4-(5-methoxy-3-pyridyl)-4H-chromene] | 8.4 | 283 | 177 | 14 | – | – | – | – | – | – |
| N#CC1=C(N)Oc2cc(N)ccc2C1c1cccc(C#N)c1 (stereo not shown) [Example 20, 2,7-Diamino-3-cyano-4-(3-cyanophenyl)-4H-chromene] | 4.0 | 120 | 58 | 5.2 | – | – | – | – | – | – |
| CCNc1ccc2c(c1)OC(N)=C(C#N)C2c1cccc(Br)c1 (stereo not shown) [Example 7, 2-Amino-3-cyano-7-ethylamino-4-(3-bromophenyl)-4H-chromene] | 5.4 | 108 | 53 | 10.7 | – | – | – | – | – | – |
| COc1cc(C2C3=CC=C4C=CN=C4C3OC(N)=C2C#N)cc(Br)c1OC (stereo not shown) [Example 42, 2-Amino-3-cyano-4-(3-bromo-4,5-dimethoxyphenyl)-4H-indolo[7,6-b]pyran] | 7.6 | 30 | 25 | 13.1 | – | – | – | – | – | – |
| N#CC1=C(N)OC2C(=CC=C3C=CN=C32)C1c1cncc(C#N)c1 (stereo not shown) [Example 60, 2-Amino-3-cyano-4-(5-cyano-pyridin-3-yl)-4H-indolo[7,6-b]pyran] | 6.7 | 388 | 57 | 5.5 | – | – | – | – | – | – |
| Cc1cc2c(cc1Cl)C(c1ccccc1)C(C#N)=C(N)O2 (stereo not shown) [Example 47, 2-Amino-6-chloro-3-cyano-7-methyl-4-phenyl-4H-chromene] | 1.9 | > 1000 | 552 | 7.3 | – | – | – | – | – | – |
| COc1ccc2c(c1)OC(N)=C(C#N)C2c1cncc(Br)c1 (stereo not shown) [Example 33, 2-Amino-3-cyano-4-(5-bromo-3-pyridyl)-7-methoxy-4H-chromene] | 7.0 | 7 | 7 | 10.4 | – | – | – | – | – | – |
| COc1cc(C2C(C#N)=C(N)Oc3c2ccc2[nH]cnc32)cc(Br)c1OC (stereo not shown) [Example 64, 2-Amino-3-cyano-4-(3-bromo-4,5-dimethoxy-phenyl)-4H-imidazo[4,5-h]chromene] | 8.0 | – | – | 4.8 | 28.8 | 13.2 | – | – | – | – |
| COc1cc(C2C(C#N)=C(N)Oc3cc(O)ccc32)cc(OC)c1OC (stereo not shown) [2-Amino-3-cyano-7-hydroxy-4-(3,4,5-trimethoxyphenyl)-4H-chromene] | – | – | – | – | – | – | 456 | 7.3 | 208 | 10.3 |
| Cc1cncc(C2C(C#N)=C(N)Oc3cc(N)ccc32)c1 (stereo not shown) [Example 34, 2,7-Diamino-3-cyano-4-(5-methyl-3-pyridyl)-4H-chromene] | 4.7 | 107 | 43 | 5.6 | – | – | – | – | – | – |
| COc1cccc(C2C(C#N)=C(N)Oc3c2ccc2nccnc32)c1 (stereo not shown) [Example 78, 2-Amino-3-cyano-4-(3-methoxyphenyl)-4H-pyrazino[2,3-h]chromene] | 1.8 | – | – | 3.6 | > 1000 | 537 | – | – | – | – |
| COc1cc(C2C(C#N)=C(N)Oc3c2ccc(N)c3O)cc(Br)c1OC (stereo not shown) [Example 74, 2-Amino-3-cyano-7-amino-8-hydroxy-4-(3-bromo-4,5-dimethoxyphenyl)-4H-chromene] | 7.4 | 149 | 99.3 | 8.9 | – | – | – | – | – | – |
| COc1cc(C2C(C#N)=C(N)Oc3c2ccc(O)c3O)cc(Br)c1OC (stereo not shown) [Example 2C, 2-Amino-3-cyano-7,8-dihydroxy-4-(3-bromo-4,5-dimethoxyphenyl)-4H-chromene] | 1.1 | > 10000 | > 10000 | 0.9 | – | – | – | – | – | – |
| CCNc1ccc2c(c1)OC(N)=C(C#N)C2c1cncc(C)c1 (stereo not shown) [Example 31, 2-Amino-3-cyano-7-ethylamino-4-(5-methyl-3-pyridyl)-4H-chromene] | 7.9 | 27 | 12 | 11.0 | – | – | – | – | – | – |
| COc1ccc2c(c1)OC(N)=C(C#N)C2c1cccc([N+](=O)[O-])c1 (stereo not shown) [Example 11, 2-Amino-3-cyano-7-methoxy-4-(3-nitrophenyl)-4H-chromene] | 4.5 | 45 | 28 | 6.6 | – | – | – | – | – | – |
| COc1ccc2c(c1)OC(N)=C(C#N)C2c1cc(Cl)cc(Cl)c1 (stereo not shown) [Example 2E, 2-Amino-3-cyano-7-methoxy-4-(3,5-dichlorophenyl)-4H-chromene] | 4.1 | 39 | 29 | 4.4 | – | – | – | – | – | – |
| 2-Amino-3-ethoxycarboxyl-4-(3-bromo-4,5-dimethoxy-phenyl)-4H-indolo[4,5-b]pyran [Example 72] | 1.2 | – | – | 3.6 | > 1000 | 567 | – | – | – | – |
| COc1ccc2c(c1)OC(N)=C(C#N)C2c1cccnc1 (stereo not shown) [Example 17, 2-Amino-3-cyano-7-methoxy-4-(3-pyridyl)-4H-chromene] | 5.9 | 254 | 147 | 8.2 | – | – | – | – | – | – |
| COc1cc(C2C(C#N)=C(N)Oc3cc(N)ccc32)cc(OC)c1OC (stereo not shown) [2,7-Diamino-3-cyano-4-(3,4,5-trimethoxyphenyl)-4H-chromene] | – | – | – | – | – | – | 30 | 4.2 | 15 | 3.5 |
